Laboratory results published in patent US20050014647A1, “Method and composition for determining resistance to an acetohydroxy-acid synthase inhibitor” (priority 2001, published 2005).
Several values for one entry are separate records, joined by “and”; a condition that tells them apart may be missing. Equal entries are not always repeated.

Experiments:
Format in all cases: cell-based
[1] = system: AHAS; test: in vivo AHAS assay, canola leaf discs with external supplement; settings: canola, 14 hours; for % of 0/0 / OD 530, Avg. of the treated discs / OD 530, Treated: replicates 1-3; for OD 530, Treated: single treated discs; for % of No Alaninor Pyruvate: Alanine 0 %
Procedure: The procedure for the preparation of an in vivo AHAS assay is described below:
For the experiments, plants are grown from seed in soil in a greenhouse. Most experiments used wild type and imidazolinone resistant varieties of wheat, canola, rice, sunflower, and maize.
For the assay, a a microtiter plate is set up with 100 μl of one of the following solutions in each well: • a. Solution A: 10 mM phosphate buffer, pH 6; 10% Murashige and Skoog basal mineral salts (according to Murashige, T. and Skoog, F., Physiol. Plant., 15 473-497 (1962)); 500 μM CPCA (cyclopropyldicarboxylic acid); • b. Solution B: Solution A+alanine (or other supplements); • c. Solution C: Solution A+a pyruvate salt (or other supplements).
Plant material is excised from the newest emerging, rapidly growing leaf or stem from the test plant and placed in one of the microtiter plates. Usually, 5 mm leaf discs are cut from the newest emerging leaf. At least 2 discs per plant are cut. One disc is put in a well with Solution A and the other disc in a well with one of the other Solutions B or C (what solution are you using for background?).
After all wells in the microtiter plate contain plant material, the plate is covered with the microtiter plate cover and the plate with material is placed in a chamber with continuous fluorescent lights for 12 to 16 hours. The incubation is stopped by placing the plate in −20° C. freezer. After tissue and solutions freeze, the plate is thawed at room temperature and 25 μL of 5% sulfuric acid are added to each well. After incubation at 60° C. for 15 minutes, 175 μL of a freshly prepared mixture of α-naphthol (2.5%) and creatine (0.25%) in 2 N NaOH are added to each well and the plate is incubated at 60° C. for 15 minutes.
200 μL from each well are transferred to a new plate and OD530 on microtiter plate is readed by a spectrophotometer.

[2] = system: AHAS; test: AHAS assay of resistant and non-resistant crops, wheat leaf slices; design: dose or concentration left out as unconfirmed; settings: imazamox and CPCA, average of four plants
Procedure: (§1) For the experiments, plants are grown from seed in soil in a greenhouse. The experiments used wild type and imidazolinone resistant varieties of maize and wheat.
(§2) For the assay, a microtiter plate is set up with […] of one of the following solutions in each well: • Solution A: 10 mM phosphate buffer (pH 4.4), 10% prepared Murashige and Skoog basal mineral salt stock solution, 0.5% (w/v) alanine, 50 mM pyruvate salt, and 0.5 mM CPCA (cyclopropyldicarboxylic acid); • Solution B: Solution A+0.0025 mM imazamox; • Solution C: Solution A without 0.5 mM CPCA
(§3) Plant material is excised from the newest emerging leaf for wheat or rapidly growing stem for maize from the test plant and placed in one of the microtiter plates. Usually, 3 to 5 mm slices are cut from the newest emerging leaf or stem. At least 3 same-length slices per plant are cut. One disc is put in a well with Solution A, one in a well with Solution B, and the last one in a well with Solution C.
(§4) After all wells in the microtiter plate contain plant material, the plate is covered with a plate cover and is placed under continuous fluorescent lights for 14 to 18 hours. The incubation is stopped by placing the plate in a −20° C. freezer. After tissue and solutions freeze, the plate is thawed at room temperature, and […] of 5% sulfuric acid is added to each well. After incubation at 60° C. for 15 minutes, […] of a freshly prepared mixture of α-naphthol (2.5%, w/v) and creatine (0.25%, w/v) in 2 N NaOH are added to each well and the plate is incubated at 60° C. for 15 minutes.
(§5) A 190 μl solution from each well is transferred to a new plate, and OD530 on microtiter plate is readed by a spectrophotometer.
(§6) AHAS activity of each plant is determined by the following formula: (OD530 of well B−OD530 of well C)/(OD530 of well A−OD530 of well C).

[3] = system: AHAS; test: AHAS assay of resistant and non-resistant crops, maize stem slices; design: dose or concentration left out as unconfirmed; settings: imazamox and CPCA, average of four plants
Procedure: as §1, §2, §3, §4, §5, §6

## NC(=O)C[C@H](N)C(=O)O [Asparagine, L-asparagine]
[1]; Asparagine (100 mM)
  % of 0/0: 107% and 141% and 91%
  OD 530, Avg. of the treated discs: 1.384 and 0.796 and 1.206
  OD 530, Treated: 1.011 and 0.718 and 1.279 and 1.343 and 0.880 and 1.094 and 1.843 and 0.907 and 1.186

## N.O [NH4OH, ammonium hydroxide]
[1]; NH4 6.25 mM, Pyruvate 0 mM
  % of No NH4 or Pyruvate: 101%
[1]; NH4 12.5 mM, Pyruvate 0 mM
  % of No NH4 or Pyruvate: 138%
[1]; NH4 25 mM, Pyruvate 0 mM
  % of No NH4 or Pyruvate: 128%
[1]; NH4 50 mM, Pyruvate 0 mM
  % of No NH4 or Pyruvate: 142%
[1]; NH4OH (50 mM)
  % of 0/0: 113% and 111% and 157%
  OD 530, Avg. of the treated discs: 0.697 and 0.886 and 1.386
  OD 530, Treated: 0.604 and 0.880 and 1.386 and 0.522 and 0.866 and 1.177 and 1.003 and 0.953 and 1.845

## CC(=O)C(=O)O [Pyruvate, Na-Pyruvate]
[1]; Pyruvate 25 mM
  % of No Alaninor Pyruvate: 110%
[1]; Pyruvate 50 mM
  % of No Alaninor Pyruvate: 139%
[1]; NH4 0 mM, Pyruvate 6.25 mM
  % of No NH4 or Pyruvate: 109%
[1]; NH4 0 mM, Pyruvate 12.5 mM
  % of No NH4 or Pyruvate: 128%
[1]; NH4 0 mM, Pyruvate 25 mM
  % of No NH4 or Pyruvate: 138%
[1]; NH4 0 mM, Pyruvate 50 mM
  % of No NH4 or Pyruvate: 175%
[1]; Pyruvate (100 mM)
  % of 0/0: 134% and 153% and 188%
  OD 530, Avg. of the treated discs: 1.510 and 1.730 and 1.950
  OD 530, Treated: 1.526 and 1.848 and 1.972 and 1.469 and 1.846 and 2.235 and 1.725 and 1.796 and 2.100

## COCc1cnc(C2=NC(C)(C(C)C)C(=O)N2)c(C(=O)O)c1 (stereo not shown) [imazamox]
[2]; Wheat variety CV 9804 (Moderate-resistance)
  Relative AHAS activity (%): 22.4%
[2]; Wheat variety Riband (Non-resistance)
  Relative AHAS activity (%): 1.5%
[2]; Wheat variety Teal 15A (High-resistance)
  Relative AHAS activity (%): 57.7%
[3]; Maize variety Garst 8541 IT (Moderate-resistance)
  Relative AHAS activity (%): 45.2%
[3]; Maize variety Pioneer 3395 IR (High-resistance)
  Relative AHAS activity (%): 67.3%
[3]; Maize variety Pioneer 3514 (Non-resistance)
  Relative AHAS activity (%): 5.8%
